Experimental data published in patent US8846066B2, “Methods and related compositions for reduction of fat and skin tightening” (The Regents of the University of California, priority 2004, dated 2014).

Experiments:
porcine fat tissue = test: MTS assay in fresh porcine fat specimens; type: cell-based; conditions: PBF or 5% solutions, 4 hours
Description: To measure cell viability after detergent treatment, HaCaT human keratinocyte cells were cultured in DMEM (Dulbecco's modified Eagle's medium) supplemented with 10% fetal calf serum, penicillin, and streptomycin. […] Cell viability was determined by an absorbance spectrophotometer (at 490 nm) after 4 hour incubation with the assay at 37° C. To determine cell viability in fresh tissue, fat specimens were incubated for 4 hours in 24 well plates with stock reagents and the MTS assay. Tissue specimens were then visualized for color change and the amount of MTS in their supernatants was measured by absorbance (at 490 nm). All studies were performed in triplicate. Absorbance at 490 nm (OD 490) is proportional to the number of living cells in the culture.
Porcine tissue was obtained immediately after sacrifice, shaved, and placed on ice for a maximum of four hours before use. […] Calcein retention was determined by tissue fluorescence using purple (411 nm) light and visually observing the emitted green (500 nm) light using an emission filters.
Fresh porcine skin was used to determine if the effects of these detergent substances on cultured cells were similar in tissue. […] The difference in fat cell viability between the solutions was quantified by measuring the absorbance (at 490) of the supernatants collected from the treated fat specimens (FIG. 3b). […]

adipocytes = test: Adipocyte survival on addition of PC to 4.75% DC; type: cell-based; conditions: 5% phosphatidylcholine added to 4.75% DC
Description: FIG. 9 illustrates survival of adipocytes when phosphatidylcholine is added to 4.75% sodium deoxycholate solution. On y-axis, 1 represents 100% survival. All % concentrations are w/v %. Survival of the cells in the absence of DC and PC is on an average 0.113.

[1] = test system: porcine skin (epidermis, dermis, subcutaneous tissue, muscle); test: Histology of full thickness porcine skin after injection
Description: Histology was performed by injecting stock reagent solutions (0.5 mL) into full thickness porcine skin at various levels (epidermis, dermis, and subcutaneous tissue) with 1.0 mL syringes and 30-gauge, 0.5 inch needles. Needle depth was visualized along the margin of the porcine tissue with the intent of saturating the target tissue. One hour after incubation with PBS at 37° C., multiple 5.0 mm biopsy specimens were obtained from the injected sites, each condition performed in triplicate. Tissue was fixed in formaldehyde, paraffin-embedded, and stained with hematoxylin-eosin. Specimens were evaluated by a board-certified dermatopathologist who was blinded to the treatment protocol.

“alkylaryl polyether alcohol [Triton, reference compound]” was tested, and the “fat cell viability (MTS purple dye, absorbance at 490)” value (porcine fat tissue) was “comparable loss of purple dye”.

With phosphatidylcholine the “effect of phosphatidylcholine on adipolysis” value (adipocytes) was “inhibits adipolysis slightly”.

With CCCCCCCCCCCC[N+](C)(C)CC(=O)[O-] [Empigen, lauryldimethylbetaine, reference compound] the “histologic changes in epidermis, dermis, adnexal structures” value [1] was “loss of fibroblast nuclear staining and hyalinization of dermal collagen”.
